The text below walks through data of ChEMBL document CHEMBL1821657, “Tritoniopsins A-D, cladiellane-based diterpenes from the South China Sea nudibranch Tritoniopsis elegans and its prey Cladiella krempfi” (J Nat Prod, 2011).

In test [1] the test system is HeLa. Briefly: Cytotoxicity against human HeLa cells assessed as cell growth inhibition after 48 hrs. It counts as functional, cell-based.
Test [2] relates to H9c2. Briefly: Cytotoxicity against rat H9c2 cells assessed as cell growth inhibition after 48 hrs. As to conditions: H9c2, 48 h. It counts as cell-based.
Test [3] has as its system 3T3-L1. Briefly: Cytotoxicity against mouse 3T3L1 cells assessed as cell growth inhibition after 48 hrs. It counts as cell-based. As to conditions: 3T3-L1, 48 h.
Test [4] concerns C6. Description: Cytotoxicity against rat C6 cells assessed as cell growth inhibition after 48 hrs. It counts as functional, cell-based.
For test [5], the system named is Caco-2. Briefly: Cytotoxicity against human Caco2 cells assessed as cell growth inhibition after 48 hrs. It counts as functional, cell-based. As to conditions: Caco-2, 48 h.

Each structure is given as a SMILES string. The source made the active and inactive calls. The calls are words filed in the database; no cut-off is given here.

As a reminder, the IC50 is the concentration that gives 50% inhibition. As for `C=C1C[C@H]2O[C@H]([C@@H]3[C@@H]4C[C@@H](OC[C@@H]4C)[C@](C)(O)[C@@H]32)[C@](C)(OC(=O)CCC)CC[C@@H]1OO` [TRITONIOPSIN B], the “growth inhibition (GI)” value in test [1] and in test [4] was “inactive” throughout. Moreover, the IC50 in test [2], in test [3] and in test [5] was 40 µM in each case.
